{"source": "patent US8679507B2", "about": "“Testosterone olfaction” (priority 2012, dated 2014)", "origin": "cited, not measured here", "tested_on": "human females", "conditions": "female college students, upper lip exposed; follicular phase"}
{"compound": "C[C@]12CC[C@@H](O)C[C@@H]1CC[C@@H]1[C@@H]2CC[C@]2(C)C=CC[C@@H]12", "note": "[androstenol]", "values": [{"measurement": "frequency of the LH pulse", "result": "decreased"}]}
